Test results: patent US9744250B2, “Chemical model of a neurodegenerative disease, method for preparation and uses of same” (priority 2012, dated 2017)

How the values were obtained:
mitochondrial complex I = test: Spectrophotometric analysis of complex I activity (NADH oxidation); assay type: biochemical, rat
Experimental: (§1) The animal was then decapitated in order to collect from the brain either the cortex or the striatum, which were quickly placed in a Potter Elvejhem® containing 6 ml of extraction buffer at 4° C. (250 mM sucrose, 40 mM KCl, 2 mM EGTA, lmg/ml BSA, 20 mM Tris, pH=7.2). This mixture was homogenized to break open the cells and release the mitochondria and then centrifuged at 2000 g for 8 minutes to remove the larger membrane debris and the nuclei from the pellet. The supernatant was then recovered and centrifuged at 13,000 g for 11 minutes. The supernatant was discarded while the pellet containing a mitochondria-rich fraction was resuspended in 500 μl of respiration buffer at 4° C. (300 mM D-mannitol, 10 mM KCl, 10 mM KH2PO4, 5 mM MgCl2, pH=7.2). […]
The kinetics of the oxidation reaction of NADH into NAD+ at 340 nm at 37° C. were continuously monitored by spectrophotometry using a JASCO V-530 spectrophotometer or a TECAN 1000M Infinite plate reader, set to a wavelength of 340 nm for 3 min. The amount of mitochondria extract to obtain the maximum activity introduced into the reaction volume was 100 μg with the spectrophotometer and 10 μg with the reader. […] The slope of the kinetics was then measured. […] The inhibition percentage was then calculated.

[1] = system: mitochondria isolated from rat cerebral cortex; test: Respiratory control (oxygen consumption, malate/pyruvate) of isolated cerebral cortex mitochondria; assay type: biochemical; conditions: increasing concentration
Experimental: as §1
Added to the polarography chamber (Hansatech) were 30 μl of mitochondria solution (0.2 mg), 460 μL of respiration buffer, 5 μl of test compound solution (meaning MPP+ or furosemide pyridinium) (or its solubilizing solvent). […] The effect of the compound on respiratory control was evaluated (ratio of stage 3 to 4), which corresponds to the coupling of the respiratory chain, or in other words the ATP synthesis at complex V and the oxygen consumption due to complexes I to IV. The results are expressed as percentages of the value measured for mitochondria not treated with the test compound (but treated with the solubilizing solvent).

α-synuclein = test: Cellular accumulation of α-synuclein (Western blot) in SH-SY5Y cells; assay type: cell-based, human; conditions: 1 mM, 6 h incubation (+24 h without MPP+)
Experimental: Cells were incubated under the same conditions as above with furosemide pyridinium (1 mM, incubation: 96 h) and MPP+ (1 mM, incubation: 6 h, wait 24 h). After incubation, the cells were trypsinized, rinsed with PBS, counted, then harvested in 100 μl of buffer containing: 250 mM sucrose; 70 mM KCl; 137 mm NaCl; 4.3 mm NaH2PO4; 1.4 mm KH2PO4, pH 7.2; and […] digitonin. Incubation at 4° C. was then conducted for 5 minutes before centrifuging at 13,000 g for 5 minutes to separate the cytosolic and lysosomal fraction from the mitochondrial fraction. Deposits of cytosolic fraction in the Western blot were adjusted according to the number of cells. The protein samples were diluted in 4× Laemmli and were then heated for 3 minutes at 95° C. to denature. They were loaded into the wells of gel. In addition to the samples, a molecular weight marker (Fermentas) was deposited in the gel. […] The transfer was carried out on PVDF membrane. The transfer was done in transfer buffer (25 mM Tris, 192 mM glycine, 10% methanol) overnight at 4° C. and 30V or for 2 hours at 4° C. and 80V. […] Then the membranes were immunolabeled for 1.5 h at room temperature with a primary antibody diluted in 1×PBS/0.2% Tween/3% milk. […] The primary antibody used was anti-α-synuclein, 1:500 (visualized with an anti-rabbit secondary antibody, 1:10,000).

SH-SY5Y neuronal cells = test: Cell viability test in MTT; assay type: cell-based, human
Experimental: Cells from SH-SY5Y human neuroblastomas were cultured in a DMEM medium containing 4.5 g·L^−1 glucose, 10% fetal calf serum, and 1% penicillin/streptomycin, and placed in an incubator at 37° C. with 7% CO2.
In the various experiments, the SH-SY5Y cells were seeded at a density of 4×10^4 cells/mL. 24 h after seeding, the cells were exposed to the various test compounds at 37° C. for 24 h, 48 h, 72 h, or 96 h.
This test consisted of rapidly measuring cellular metabolic activity in the presence of the study compound at different concentrations, in order to conduct a dose-response study. To do this, the tetrazolium salt MTT, 3-(4,5-dimethylthiazol-2-yl)-2,5-diphenyltetrazolium bromide (Amoroso et al., Biochim Biophys Acta, 1999, 1452(2):151-60), was placed in contact with the cells. MTT is reduced to formazan by living cells that have the capacity to metabolize it, unlike dead cells. To conduct this test, SH-SY5Y neuronal cells in 48-well plates were incubated for 24 h, 48 h, 72 h, and 96 h, with furosemide pyridinium at concentrations ranging from 0 to 1000 μM. Then MTT (0.5 mg/ml final) was added to each well and incubated at 37° C. for 2 h. At the end of incubation, after carefully removing the medium, DMSO was added (200 μL) to dissolve the cell membranes and the formazan crystals formed by the living cells. The toxicity of the molecule was evaluated by determining the amount of reduced MTT, doing so by measuring the absorbance at 550 nm as this value is proportional to the number of living cells. The results were expressed as a function of the values obtained for cells treated only with the solvent used to dissolve the compound of interest. To compare the toxicity of furosemide pyridinium to that of MPP+, the cells were incubated in the presence of MPP+ (0 to 1000 μM) for 6 h. The culture medium was replaced and the cells were incubated at 37° C. for an additional 24 h (no MPP+). Cell survival was measured at the end of these 24 hours of incubation as described above. When evaluating the effect of different concentrations of α-tocopherol (vitamin E), a membrane antioxidant, the cells were pretreated for 24 h with this antioxidant before being exposed to furosemide pyridinium at a concentration of 0.5 mM under the same experimental conditions as above.

[2] = system: respiratory chain complexes II-V of rat cerebral cortex mitochondria; test: Respiratory control after induction of complex II by succinate and inhibition of complex I by rotenone; assay type: biochemical; conditions: 1 mM, succinate
Experimental: as §1
Added to the polarography chamber (Hansatech) were 30 μl of mitochondria solution (0.2 mg), 460 μL of respiration buffer, 5 μl of test compound solution (meaning MPP+ or furosemide pyridinium) (or its solubilizing solvent). […] The effect of the compound on respiratory control was evaluated (ratio of stage 3 to 4), which corresponds to the coupling of the respiratory chain, or in other words the ATP synthesis at complex V and the oxygen consumption due to complexes I to IV. The results are expressed as percentages of the value measured for mitochondria not treated with the test compound (but treated with the solubilizing solvent). […]

caspase-8 = test: Caspase-8 activity (Ac-IETD-AFC cleavage) in SH-SY5Y cells; assay type: cell-based, human; conditions: 1 mM, 6 h (+24 h without MPP+)
Experimental: Measurement of the activities of the various caspases is based on the ability of the caspases to cleave specific fluorescent substrates: Ac-DEVD-AFC for caspase-3, Ac-IETD-AFC for caspase-8, or Ac-LEHD-AFC for caspase-9. SH-SY5Y neuronal cells were incubated in 48-well plates with either furosemide pyridinium (1 mM) for 96 h or with MPP+ (1 mM) for 6 h, then 24 h of incubation with no MPP+. After incubation, the cells were trypsinized, then rinsed with PBS and counted, then harvested in 100 μl of buffer containing 30 mM HEPES, 0.3 mM EDTA, 100 mM NaCl, 0.15% Triton X-100, and 10 mM DTT. The cell extract was then incubated for 1 hour at 37° C. with the specific substrate (100 μM) in a 96-well plate. Fluorescence was measured at λex400 nm and λem505 nm in a fluorescence detection plate reader (TECAN Infinite M1000) (Yue et al., supra). The results were expressed as percentages relative to the measured activity of cells cultured under the same conditions and not subjected to any treatment.

## Oc1ccc[n+](-c2ccc(Cl)cc2)c1.[Cl-] [1-(4-chlorophenyl)-3-hydroxypyridinium, 1-(4-chlorophenyl)-3-hydroxypyridinium chloride]
Mitochondrial complex I; 0.2 mM
  inhibition of complex I activity: complete inhibition

## C[n+]1ccc(-c2ccccc2)cc1 [MPP+, reference compound]
[1]
  respiratory control of cerebral cortex mitochondria induced by malate/pyruvate: diminished
α-synuclein
  increase in the total amount of α-synuclein compared to control cells: 319%
SH-SY5Y neuronal cells; 1 mM, 6 h incubation (+24 h without MPP+)
  cell death: massive cell death
SH-SY5Y neuronal cells; 6 h incubation (+24 h without MPP+), read-out: EC50 (cell survival)
  EC50: 386 ± 19.2 µM
[2]
  respiratory control of cortex mitochondria after induction by complex II: not modified
caspase-8
  change in caspase-8 activity: did not induce significant changes

## Cc1c(C)c2c(c(C)c1O)CC[C@@](C)(CCC[C@H](C)CCC[C@H](C)CCCC(C)C)O2 [α-tocopherol]
SH-SY5Y neuronal cells; 24 h pretreatment, then 0.5 mM furosemide pyridinium
  concentration at which the protective effect becomes visible: 0.1 mg/mL
SH-SY5Y neuronal cells; 24 h pretreatment, then 0.5 mM furosemide pyridinium 96 h
  cell survival rate after 24 h pretreatment before 0.5 mM furosemide pyridinium: increased the cell survival rate in a dose-dependent manner
SH-SY5Y neuronal cells; pretreatment 1 μg/mL, without furosemide pyridinium
  increase of cell survival, α-tocopherol alone: 20%
SH-SY5Y neuronal cells; pretreatment 0.01 and 0.1 μg/mL, without furosemide pyridinium
  change of cell survival, α-tocopherol alone: did not change cell survival

## Clc1ccc(-[n+]2ccccc2)cc1.[Cl-] [1-(4-chlorophenyl) pyridinium, 1-(4-chlorophenyl) pyridinium chloride]
Mitochondrial complex I; concentration not given
  inhibition of complex I activity: 95%
